Where two headings read alike, the source gives them in different places.
Tests used:
Assay in all cases: Anti-fungal MIC assay
Format in all cases: cell-based
Candida albicans CA6 = tested on: Candida albicans CA6
Summary of the method: (§1)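 First, DMSO stocks (6400 μg/ml, 100× highest test level) were diluted to 2× in RPMI-1640 with MOPS at pH 7.0. Trays were then held at 35° C without agitation.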

Candida parapsilosis CP1 = tested on: Candida parapsilosis CP1
Summary of the method: as §1

Candida albicans CA5 = tested on: Candida albicans CA5
Summary of the method: as §1

Candida albicans CA3 = tested on: Candida albicans CA3
Summary of the method: as §1

Candida auris DI17-47 = conditions: Candidozyma auris
Summary of the method: as §1

[1] = tested on: Paecilomyces variotii MYA-3630
Summary of the method: as §1

[2] = tested on: Cryptococcus neoformans USC 1597
Summary of the method: as §1

Candida albicans SC5314 = tested on: Candida albicans SC5314
Summary of the method: as §1

[3] = tested on: Blastomyces dermatitidis BD2
Summary of the method: as §1

Candida krusei ATCC6258 = conditions: Pichia kudriavzevii
Summary of the method: as §1

Candida auris DI17-46 = conditions: Candidozyma auris
Summary of the method: as §1

[4] = tested on: Cryptococcus neoformans CN3
Summary of the method: as §1

Candida auris DI17-48 = conditions: Candidozyma auris
Summary of the method: as §1

Candida glabrata 05-62 = tested on: Candida glabrata 05-62
Summary of the method: as §1

[5] = tested on: Candida guilliermondii Cgui3; conditions: Meyerozyma guilliermondii
Summary of the method: as §1

[6] = tested on: Blastomyces dermatitidis BD1
Summary of the method: as §1

[7] = tested on: Aspergillus fumigatus AF3
Summary of the method: as §1

Candida glabrata 05-761 = tested on: Candida glabrata 05-761
Summary of the method: as §1

[8] = tested on: Candida albicans ATCC90028
Summary of the method: as §1

[9] = tested on: Candida guilliermondii Cgui2; conditions: Meyerozyma guilliermondii
Summary of the method: as §1

[10] = tested on: Aspergillus fumigatus AF293
Summary of the method: as §1

[11] = tested on: Blastomyces dermatitidis BD3
Summary of the method: as §1

Candida glabrata CG3 = conditions: Nakaseomyces glabratus
Summary of the method: as §1

[12] = read-out: MIC, 50% growth inhibition
[13] = read-out: MIC, 100% growth inhibition

Measured: MIC

N=C(N)c1ccc(CC[C@H]2CCC[C@@H](CCc3ccc(C(=N)N)cc3)C2)cc1 [Compound 3, 4,4′-(2,2′-((1R,3S)-cyclohexane-1,3-diyl)bis(ethane-2,1-diyl))dibenzimidamide]
1 µg/mL: Candida parapsilosis CP1; [12] | Candida albicans CA3; [12] | Candida albicans CA3; [13] | Candida auris DI17-47; DI1747, read-out: MIC, 50% growth inhibition | [1]; MYA3630, read-out: MIC, 50% growth inhibition | [1]; MYA3630, read-out: MIC, 100% growth inhibition | Candida albicans SC5314; [12] | Candida albicans SC5314; [13] | Candida krusei ATCC6258; ATCC6258, read-out: MIC, 100% growth inhibition, C. krusei ATCC 6258, second round (Table 6) | Candida glabrata 05-761; Nakaseomyces glabratus, 05761, read-out: MIC, 50% growth inhibition | [8]; [13] | Candida glabrata CG3; [13]
32 µg/mL: [7]; [12]
16 µg/mL: [10]; [12] | [10]; [13]
0.5 µg/mL: Candida albicans CA6; [12] | Candida albicans CA6; [13] | Candida albicans CA5; [13] | [2]; USC1597, read-out: MIC, 50% growth inhibition | [2]; USC1597, read-out: MIC, 100% growth inhibition | Candida krusei ATCC6258; ATCC6258, C. krusei ATCC 6258, second round (Table 6), read-out: MIC, 50% growth inhibition | [4]; [12] | [4]; [13] | [8]; [12] | Candida glabrata CG3; [12]
2 µg/mL: [3]; [12] | Candida auris DI17-46; DI1746, read-out: MIC, 50% growth inhibition | Candida auris DI17-48; DI1748, read-out: MIC, 50% growth inhibition | Candida glabrata 05-62; Nakaseomyces glabratus, 0562, read-out: MIC, 50% growth inhibition | [5]; [12] | [5]; [13] | Candida glabrata 05-761; Nakaseomyces glabratus, 05761, read-out: MIC, 100% growth inhibition | [9]; [12] | [9]; [13]
0.25 µg/mL: Candida albicans CA5; [12]
64 µg/mL: [7]; [13]
4 µg/mL: Candida auris DI17-47; DI1747, read-out: MIC, 100% growth inhibition | [3]; [13] | Candida auris DI17-46; DI1746, read-out: MIC, 100% growth inhibition | Candida auris DI17-48; DI1748, read-out: MIC, 100% growth inhibition | Candida glabrata 05-62; Nakaseomyces glabratus, 0562, read-out: MIC, 100% growth inhibition | [6]; [12] | [11]; [12]
8 µg/mL: Candida parapsilosis CP1; [13] | Candida krusei ATCC6258; ATCC6258, Candida krusei ATCC6258, first round (Table 5), read-out: MIC, 50% growth inhibition | Candida krusei ATCC6258; ATCC6258, read-out: MIC, 100% growth inhibition, Candida krusei ATCC6258, first round (Table 5) | [6]; [13] | [11]; [13]

Source: patent US20230391727A1, “ANALOGUES OF PENTAMIDINE AND METHODS FOR TREATING INFECTIONS” (Auransa Inc., priority 2020, published 2023)
